Patent publication US20040248300A1, “Enhanced gene expression using vectors” (priority 2001, published 2004)

System: human foetal foreskin fibroblasts (HFFF2)
Test: Responsiveness of the in1360 genome to Trichostatin A: β-galactosidase activity in infected HFFF2 cells
Type: cell-based
Protocol: Trichostatin A (TSA) is an agent that inhibits deacetylases. When it is added to cells, histones and other proteins involved in transcriptions become hyperacetylated, because they are not deacetylated. This frequently results in activation of gene expression. In the case of HSV-1 mutants, the genome is not responsive to TSA once the quiescent state has been established. Monolayers of HFFF2 cells were infected with in1360 and maintained at 38.5° C. At 8 days after infection, cells were either untreated or treated with 660 nM TSA. After maintenance at 38.5° C. for a further 2 days, extracts were made and β-galactosidase activities were measured. The extracts from untreated cells gave a value of 121 units (range 113-129), whereas extracts from TSA-treated cells gave a value of 806 unites (range 739-873), a stimulation of 6.7-fold.

Structure (SMILES): CC(/C=C/C(=O)NO)=C\[C@@H](C)C(=O)c1ccc(N(C)C)cc1 [TSA, Trichostatin A]
- β-galactosidase activity, extracts from TSA-treated cells (660 nM TSA added 8 days after infection, a further 2 days at 38.5° C., range 739-873): 806 unites
- effect of TSA on X-gal stained cells (in words) (660 nM TSA for 2 days, 10 days after infection): increased the number of positive cells and the intensity of straining
- stimulation of β-galactosidase activity by TSA (660 nM TSA versus untreated): 6.7 fold
